Test: Tacrolimus tissue, plasma and GI content pharmacokinetics, oral vs intra-cecal ingestible device delivery
Assay type: in vivo
Conditions: swine; intra-cecal compared to oral; 12 hours post-dose; FIG. 76
Procedure: No further randomization procedure was employed.
Animals in Group 1 received an ingestible device containing 0.8 mL of vehicle solution (80% alcohol, 20% HCO-60). Animals in Group 2 received orally […] liquid formulation of tacrolimus at 4 mg/0.8 mL per animal (Prograf: 5 mg/mL). Animals in Group 3 received intra-cecally an ingestible device containing tacrolimus at 1 mg in 0.8 mL per ingestible device. Animals in Group 4 received intra-cecally an ingestible device containing tacrolimus at 2 mg in 0.8 mL per ingestible device. Animals in Group 5 received intra-cecally an ingestible device containing tacrolimus at 4 mg in 0.8 mL per ingestible device. […]
Approximately 200-400 mg of rectal content were collected, if available, with a fecal swab (Copan Diagnostics Nylon Flocked Dry Swabs, 502CS01). The fecal swab was pre-weighed and weighed after collection in the collection tube (Sterile Tube and Cap No Media, PFPM913S), and the sample weight was recorded. […]
For tissue necropsy, small intestine fluid and cecal fluid were collected separately from all the animals into two separate square plastic bottles, and stored at −20° C. The length and diameter of the cecum and the colon was measured from one animal in each group and recorded for reference. […] All samples were weighed, and the tissue sample weights were recorded. […]

- mean concentration of tacrolimus in the cecum tissue and the proximate colon tissue: higher
SMILES: C=CC[C@@H]1/C=C(\C)C[C@H](C)C[C@H](OC)[C@H]2O[C@@](O)(C(=O)C(=O)N3CCCC[C@H]3C(=O)O[C@H](/C(C)=C/[C@@H]3CC[C@@H](O)[C@H](OC)C3)[C@H](C)[C@@H](O)CC1=O)[C@H](C)C[C@@H]2OC [tacrolimus]
